Laboratory results reported in US20110178064A1, “SPIRO CONDENSED […] DERIVATIVES FOR USE AS ANTIBACTERIAL” (A[…]&D, priority 2007, published 2011).
Converted amounts (≈) assume the structure as drawn. Where two headings read alike, the source gives them in different places.

How the values were obtained:
[1] = target: Escherichia coli DNA gyrase A/B tetramer (Escherichia coli, UniProt P0AES4+P0AES6); test: DNA gyrase supercoiling activity fluorescence polarisation assay; assay type: biochemical
Procedure, shortened: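 Gyrase supercoiling reactions quenched with 40 nM 5′-BODIPY-FL oligodeoxynucleotide triplex probe in pH 3.5 NaCl/sodium acetate buffer; fluorescence anisotropy read after 60 min (485/535 nm).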

[2] = test system: Hin158; test: Bacterial susceptibility testing (MIC) in liquid media, 96 well format; assay type: cell-based; conditions: Haemophilus influenzae
Text: (§1) Compounds may be tested for antimicrobial activity by susceptibility testing in liquid media in a 96 well format. Compounds may be dissolved in dimethylsulfoxide and tested in 10 doubling dilutions in the susceptibility assays. The organisms used in the assay may be grown overnight on suitable agar media and then suspended in a liquid medium appropriate for the growth of the organism. The suspension may be a 0.5 McFarland and a further 1 in 10 dilution may be advantageously made into the same liquid medium to prepare the final organism suspension in 100 μL. Plates may be incubated under appropriate conditions at 37° C. for 24 hours prior to reading. […] Compounds may be evaluated against organisms such as Gram-positive species, including Staphylococcus aureus, Streptococcus pneumoniae, Streptococcus pyogenes, and Enterococcus faecium; and Gram-negative species including Haemophilus influenzae, Escherichia coli and Moraxella catarrhalis.

[3] = test system: Eco524; test: as above; assay type: cell-based; conditions: Escherichia coli
Text: as §1

[4] = test system: Hin737; test: as above; assay type: cell-based; conditions: Haemophilus influenzae
Text: as §1

[5] = test system: Hin446; test: as above; assay type: cell-based; conditions: Haemophilus influenzae
Text: as §1

[6] = test system: Mca445; test: as above; assay type: cell-based; conditions: Moraxella catarrhalis
Text: as §1

[7] = test system: Sau517; test: as above; assay type: cell-based; conditions: Staphylococcus aureus
Text: as §1

[8] = E. coli DNA gyrase supercoiling, asterisk: no IC50 obtained at or below the indicated concentration, read-out: IC50

Chain of Escherichia coli DNA gyrase A/B tetramer (P0AES4 whole entry, one chain of several): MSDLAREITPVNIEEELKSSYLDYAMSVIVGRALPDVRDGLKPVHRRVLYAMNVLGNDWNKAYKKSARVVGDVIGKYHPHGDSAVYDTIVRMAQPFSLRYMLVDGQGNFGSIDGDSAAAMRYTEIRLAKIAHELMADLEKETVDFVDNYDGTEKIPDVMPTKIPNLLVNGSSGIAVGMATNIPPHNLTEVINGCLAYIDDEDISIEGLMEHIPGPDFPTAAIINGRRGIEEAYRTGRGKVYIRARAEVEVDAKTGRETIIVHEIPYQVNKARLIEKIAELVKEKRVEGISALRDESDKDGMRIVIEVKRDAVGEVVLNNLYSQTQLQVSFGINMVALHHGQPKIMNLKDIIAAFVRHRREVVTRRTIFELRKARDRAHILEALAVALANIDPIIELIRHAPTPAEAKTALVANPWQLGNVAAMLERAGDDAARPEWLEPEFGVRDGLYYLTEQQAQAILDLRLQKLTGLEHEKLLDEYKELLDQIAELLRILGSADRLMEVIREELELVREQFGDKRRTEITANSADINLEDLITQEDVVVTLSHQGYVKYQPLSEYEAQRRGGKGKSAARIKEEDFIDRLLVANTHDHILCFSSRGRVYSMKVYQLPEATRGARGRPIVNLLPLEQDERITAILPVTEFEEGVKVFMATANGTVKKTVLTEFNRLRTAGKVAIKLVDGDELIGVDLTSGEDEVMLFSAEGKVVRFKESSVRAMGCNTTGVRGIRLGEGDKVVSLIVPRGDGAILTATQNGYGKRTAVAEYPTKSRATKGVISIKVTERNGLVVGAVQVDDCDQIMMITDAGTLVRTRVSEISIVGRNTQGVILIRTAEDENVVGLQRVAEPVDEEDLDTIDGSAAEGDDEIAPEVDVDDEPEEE

Compound | IC50 [1] | MIC [2] | MIC [3] | MIC [4] | MIC [5] | MIC [6] | MIC [7] | IC50 [1, 8]
C[C@@H]1CN2c3ncccc3CC3(C(=O)NC(=O)NC3=O)[C@H]2[C@H](C)O1 (relative stereo) [Example 18, (6aS,7S,9R)-rel-7,9-Dimethyl-6a,7,9,10-tetrahydro-1′H,5H-spiro[[1,4]oxazino[4,3-a][1,8]naphthyridine-6,5′-pyrimidine]-2′,4′,6′(3′H)-trione] | 51 µM | 8 µg/mL (≈ 24.2 µM) | 32 µg/mL (≈ 96.9 µM) | 32 µg/mL (≈ 96.9 µM) | 16 µg/mL (≈ 48.4 µM) |  |  | 
C[C@@H]1CN2c3ccc(Br)nc3CC3(C(=O)NC(=O)NC3=O)[C@H]2[C@H](C)O1 (relative stereo) [Example 19, (2R,4S,4aS)-rel-8-Bromo-2,4-dimethyl-2,4,4a,6-tetrahydro-1H,1′H-spiro[[1,4]oxazino[4,3-a][1,5]naphthyridine-5,5′-pyrimidine]-2′,4′,6′(3′H)-trione] | 11 µM | 1 µg/mL (≈ 2.44 µM) | 2 µg/mL (≈ 4.89 µM) | 16 µg/mL (≈ 39.1 µM) | 4 µg/mL (≈ 9.77 µM) | 8 µg/mL (≈ 19.5 µM) | 32 µg/mL (≈ 78.2 µM) | 
(2R,4S,4aS)-rel-2,4-Dimethyl-8-(1H-pyrazol-4-yl)-1,2,4,4a-tetrahydro-2′H,6H-spiro[1,4-oxazino[4,3-a][1,5]naphthyridine-5,5′-pyrimidine]-2′,4′,6′(1′H,3′H)-trione [Example 72] |  |  |  |  |  |  |  | > 5 µM
(6aS,7S,9R)-rel-3-(6-Methoxypyrazin-2-yl)-7,9-dimethyl-6a,7,9,10-tetrahydro-2′H,5H-spiro[1,4-oxazino[4,3-a][1,7]naphthyridine-6,5′-pyrimidine]-2′,4′,6′(1′H,3′H)-trione [Example 105] |  |  |  |  |  |  |  | 19 µM
